Source: patent publication US20080063628A1, “METHODS TO PROMOTE CELL DIFFERENTIATION” (priority 2006, published 2008)

Key:
Assay in all cases: Single trichostatin A dose, 144 h follow-up, gene expression by RT-PCR (Example 6)
Assay type in all cases: cell-based, human
[1] = test system: early passage (P5) pancreatic-derived stromal cell line; settings: 1.25 μM once at 0 h
Method: (§1) Several cell lines obtained from different amniotic fluid specimens (see Example 14) and pancreas donors (see Example 13) were tested with similar results. Two lines at similar passage number but derived from different amniotic fluid specimens are shown in Table VI-A and Table VI-B for this example. One of these cell lines was also used in examples 2 and 4 above. In addition, this example also contains comparison data in Table VI-C and Table VI-D for a single pancreatic-derived stromal line grown to early and late passage number.
(§2) Amniotic fluid derived cells or pancreatic-derived stromal cells were seeded into 24-well tissue culture plates at a density of 5000/cm^2 and cultured in AMNIOMAX (Invitrogen) or DMEM with 10% FBS, respectively, under standard cell culture conditions until confluent. After the cells reached confluency, amniotic fluid derived cells were treated once at time 0 hours with 500 nM trichostatin A. Pancreas-derived stromal cells were treated once at time 0 hours with 1.25 μM trichostatin A. Samples for RT-PCR were taken daily from zero to six days at the times indicated in Table VI.
(§3) RNA samples were obtained from the treated cultures up to 144 hours after the initial addition of trichostatin A or DMSO. Culture media was removed, the cells were washed with PBS, and RLT lysis buffer containing β-mercaptoethanol (Qiagen) was added. During culture, the medium was not changed nor was freshly prepared trichostatin A added. RNA was purified using the RNeasy Mini Kit (Qiagen), and RNA quantity and quality was determined using a spectrophotometer. cDNA was made using the iScript cDNA synthesis kit (BioRad).
(§4) Samples of 20 ng cDNA were used in each reaction to determine the expression levels of the following genes in amniotic fluid-derived cells: Gata1, HNF-3 beta, Pdx-1, insulin, and Sox17. Similarly, samples of 20 ng cDNA were used in each reaction to determine the expression level of the following genes in pancreatic-derived stromal cells: glucagon, HNF-3 beta, insulin and Pdx-1. Real-Time PCR was performed on the Applied Biosystems 7500, and data was analyzed using the accompanying software according to the methods described in Example 15.
(§5) Real-time PCR amplifcation and quantitative analysis. Unless otherwise stated, all reagents were purchased from Applied Biosystems. Real-time PCR reactions were performed using the ABI PRISM™ 7500 Sequence Detection System. TAQMAN™ FAST UNIVERSAL PCR MASTER MIX™ (ABI, CA) was used with 20 ng of reverse transcribed RNA in a total reaction volume of 20 μl. Each cDNA sample was run in duplicate to allow correction of pipetting errors. Primers and FAM-labeled TAQMAN™ probes were used at concentrations of 200 nM. The level of expression for each target gene was normalized using the pre-developed Applied Biosystem's human glyceraldehyde-3-phosphate dehydrogenase (GAPDH) endogenous control kit. Primers and probes were designed using either ABI PRISM PRIMER EXPRESS™ software or a pre-developed ABI gene analysis kit. For each gene, either one of the primers or the probe were designed to be exon-boundary spanning. This eliminated the possibility of the primers/probe binding to any genomic DNA present. The primer and probe sets are listed as follows: Pdx-1 (Hs00426216), Insulin (Hs00355773), glucagon (Hs00174967), and FoxA2 (HNF 3-beta) (Hs00232764). The remaining primers were designed using the PRIMERS program (ABI, CA). After an initial 95° C. incubation for 20 sec, samples were cycled 40 times in two stages: a denaturation step at 95° C. for 3 sec, followed by an annealing/extension step at 60° C. for 30 sec.
(§6) For each primer/probe set, a cycle time value was determined as the cycle number at which the fluorescence intensity of the PCR reaction reached a specific value in the middle of the exponential region of amplification. An increase in expression of a gene corresponded to a decrease in the number of cycles required for the fluorescence intensity to reach this value.

[2] = test system: second amniotic fluid-derived cell line; settings: 500 nM once at 0 h
Method: as §1, §2, §3, §4, §5, §6

[3] = test system: late passage (P14) pancreatic-derived stromal cell line; settings: 1.25 μM once at 0 h
Method: as §1, §2, §3, §4, §5, §6

CC(/C=C/C(=O)NO)=C\[C@@H](C)C(=O)c1ccc(N(C)C)cc1 [trichostatin A]
HNF (HNF-3 beta) gene expression ([1]; 24 hrs): +++ (detectable at less than 35 cycles by RT-PCR with SE less than 0.9) | Insulin gene expression ([1]; 24 hrs): nd (not detectable at >40 cycles by RT-PCR) | Pdx-1 gene expression ([1]; 24 hrs): +++ (detectable at less than 35 cycles by RT-PCR with SE less than 0.9) | glucagon gene expression ([1]; 24 hrs): +++ (detectable at less than 35 cycles by RT-PCR with SE less than 0.9) | HNF (HNF-3 beta) gene expression ([1]; 48 hrs): nd (not detectable at >40 cycles by RT-PCR) | Insulin gene expression ([1]; 48 hrs): nd (not detectable at >40 cycles by RT-PCR) | Pdx-1 gene expression ([1]; 48 hrs): nd (not detectable at >40 cycles by RT-PCR) | glucagon gene expression ([1]; 48 hrs): + (detectable between 35 and 40 cycles by RT-PCR) | HNF (HNF-3 beta) gene expression ([1]; 72 hrs): nd (not detectable at >40 cycles by RT-PCR) | Insulin gene expression ([1]; 72 hrs): nd (not detectable at >40 cycles by RT-PCR) | Pdx-1 gene expression ([1]; 72 hrs): nd (not detectable at >40 cycles by RT-PCR) | glucagon gene expression ([1]; 72 hrs): + (detectable between 35 and 40 cycles by RT-PCR) | HNF (HNF-3 beta) gene expression ([1]; 96 hrs): nd (not detectable at >40 cycles by RT-PCR) | Insulin gene expression ([1]; 96 hrs): nd (not detectable at >40 cycles by RT-PCR) | Pdx-1 gene expression ([1]; 96 hrs): nd (not detectable at >40 cycles by RT-PCR) | glucagon gene expression ([1]; 96 hrs): +++ (detectable at less than 35 cycles by RT-PCR with SE less than 0.9) | HNF (HNF-3 beta) gene expression ([1]; 120 hrs): nd (not detectable at >40 cycles by RT-PCR) | Insulin gene expression ([1]; 120 hrs): nd (not detectable at >40 cycles by RT-PCR) | Pdx-1 gene expression ([1]; 120 hrs): nd (not detectable at >40 cycles by RT-PCR) | glucagon gene expression ([1]; 120 hrs): nd (not detectable at >40 cycles by RT-PCR) | HNF (HNF-3 beta) gene expression ([1]; 144 hrs): nd (not detectable at >40 cycles by RT-PCR) | Insulin gene expression ([1]; 144 hrs): nd (not detectable at >40 cycles by RT-PCR) | Pdx-1 gene expression ([1]; 144 hrs): nd (not detectable at >40 cycles by RT-PCR) | glucagon gene expression ([1]; 144 hrs): nd (not detectable at >40 cycles by RT-PCR) | Gata1 gene expression ([2]; 24 hrs): nd (not detectable at >40 cycles by RT-PCR) | HNF (HNF-3 beta) gene expression ([2]; 24 hrs): +++ (detectable at less than 35 cycles by RT-PCR with SE less than 0.9) | Insulin gene expression ([2]; 24 hrs): nd (not detectable at >40 cycles by RT-PCR) | Pdx-1 gene expression ([2]; 24 hrs): + (detectable between 35 and 40 cycles by RT-PCR) | sox17 gene expression ([2]; 24 hrs): +++ (detectable at less than 35 cycles by RT-PCR with SE less than 0.9) | Gata1 gene expression ([2]; 48 hrs): nd (not detectable at >40 cycles by RT-PCR) | HNF (HNF-3 beta) gene expression ([2]; 48 hrs): +++ (detectable at less than 35 cycles by RT-PCR with SE less than 0.9) | Insulin gene expression ([2]; 48 hrs): nd (not detectable at >40 cycles by RT-PCR) | Pdx-1 gene expression ([2]; 48 hrs): nd (not detectable at >40 cycles by RT-PCR) | sox17 gene expression ([2]; 48 hrs): +++ (detectable at less than 35 cycles by RT-PCR with SE less than 0.9) | Gata1 gene expression ([2]; 72 hrs): nd (not detectable at >40 cycles by RT-PCR) | HNF (HNF-3 beta) gene expression ([2]; 72 hrs): + (detectable between 35 and 40 cycles by RT-PCR) | Insulin gene expression ([2]; 72 hrs): + (detectable between 35 and 40 cycles by RT-PCR) | Pdx-1 gene expression ([2]; 72 hrs): nd (not detectable at >40 cycles by RT-PCR) | sox17 gene expression ([2]; 72 hrs): +++ (detectable at less than 35 cycles by RT-PCR with SE less than 0.9) | Gata1 gene expression ([2]; 96 hrs): nd (not detectable at >40 cycles by RT-PCR) | HNF (HNF-3 beta) gene expression ([2]; 96 hrs): + (detectable between 35 and 40 cycles by RT-PCR) | Insulin gene expression ([2]; 96 hrs): ++ (detectable at less than 35 cycles by RT-PCR with SE greater than 0.9) | Pdx-1 gene expression ([2]; 96 hrs): nd (not detectable at >40 cycles by RT-PCR) | sox17 gene expression ([2]; 96 hrs): +++ (detectable at less than 35 cycles by RT-PCR with SE less than 0.9) | Gata1 gene expression ([2]; 120 hrs): nd (not detectable at >40 cycles by RT-PCR) | HNF (HNF-3 beta) gene expression ([2]; 120 hrs): + (detectable between 35 and 40 cycles by RT-PCR) | Insulin gene expression ([2]; 120 hrs): ++ (detectable at less than 35 cycles by RT-PCR with SE greater than 0.9) | Pdx-1 gene expression ([2]; 120 hrs): nd (not detectable at >40 cycles by RT-PCR) | sox17 gene expression ([2]; 120 hrs): +++ (detectable at less than 35 cycles by RT-PCR with SE less than 0.9) | Gata1 gene expression ([2]; 144 hrs): nd (not detectable at >40 cycles by RT-PCR) | HNF (HNF-3 beta) gene expression ([2]; 144 hrs): + (detectable between 35 and 40 cycles by RT-PCR) | Insulin gene expression ([2]; 144 hrs): ++ (detectable at less than 35 cycles by RT-PCR with SE greater than 0.9) | Pdx-1 gene expression ([2]; 144 hrs): nd (not detectable at >40 cycles by RT-PCR) | sox17 gene expression ([2]; 144 hrs): +++ (detectable at less than 35 cycles by RT-PCR with SE less than 0.9) | HNF (HNF-3 beta) gene expression ([3]; 24 hrs): + (detectable between 35 and 40 cycles RT-PCR) | Insulin gene expression ([3]; 24 hrs): nd (not detectable at >40 cycles by RT-PCR) | Pdx-1 gene expression ([3]; 24 hrs): +++ (detectable at less than 35 cycles RT-PCR with SE less than 0.9) | glucagon gene expression ([3]; 24 hrs): +++ (detectable at less than 35 cycles RT-PCR with SE less than 0.9) | HNF (HNF-3 beta) gene expression ([3]; 48 hrs): nd (not detectable at >40 cycles by RT-PCR) | Insulin gene expression ([3]; 48 hrs): nd (not detectable at >40 cycles by RT-PCR) | Pdx-1 gene expression ([3]; 48 hrs): nd (not detectable at >40 cycles by RT-PCR) | glucagon gene expression ([3]; 48 hrs): + (detectable between 35 and 40 cycles RT-PCR) | HNF (HNF-3 beta) gene expression ([3]; 72 hrs): nd (not detectable at >40 cycles by RT-PCR) | Insulin gene expression ([3]; 72 hrs): nd (not detectable at >40 cycles by RT-PCR) | Pdx-1 gene expression ([3]; 72 hrs): nd (not detectable at >40 cycles by RT-PCR) | glucagon gene expression ([3]; 72 hrs): nd (not detectable at >40 cycles by RT-PCR) | HNF (HNF-3 beta) gene expression ([3]; 96 hrs): nd (not detectable at >40 cycles by RT-PCR) | Insulin gene expression ([3]; 96 hrs): nd (not detectable at >40 cycles by RT-PCR) | Pdx-1 gene expression ([3]; 96 hrs): nd (not detectable at >40 cycles by RT-PCR) | glucagon gene expression ([3]; 96 hrs): nd (not detectable at >40 cycles by RT-PCR) | HNF (HNF-3 beta) gene expression ([3]; 120 hrs): nd (not detectable at >40 cycles by RT-PCR) | Insulin gene expression ([3]; 120 hrs): nd (not detectable at >40 cycles by RT-PCR) | Pdx-1 gene expression ([3]; 120 hrs): nd (not detectable at >40 cycles by RT-PCR) | glucagon gene expression ([3]; 120 hrs): nd (not detectable at >40 cycles by RT-PCR) | HNF (HNF-3 beta) gene expression ([3]; 144 hrs): nd (not detectable at >40 cycles by RT-PCR) | Insulin gene expression ([3]; 144 hrs): nd (not detectable at >40 cycles by RT-PCR) | Pdx-1 gene expression ([3]; 144 hrs): nd (not detectable at >40 cycles by RT-PCR) | glucagon gene expression ([3]; 144 hrs): nd (not detectable at >40 cycles by RT-PCR)
